In patent publication US12377194B2, “JAB1 inhibitory compositions for ossification and methods related thereto” (Emory University, priority 2011, dated 2025):

What was measured:
Mouse C2C12 cells = experiment: Alkaline phosphatase (ALP) assay, cell based screen of JAB1 blockers with BMP-2; settings: cell based assay (FIG. 1-4)
Description: Mouse C2C12 cells and Dulbecco's modified Eagle's medium (DMEM) were purchased from ATCC (Manassas, VA). The non-heat inactivated fetal bovine serum (FBS) was purchased from HyClone Laboratories, Inc. (Logan, UT). The C2C12 cells at passages 4 to 7 were subcultured in T-75 cm2 flasks in DMEM supplemented with 10% FBS at 37° C. in 5% CO2 with humidification. When the flasks reached 80% confluence, the cells were trypsinized and seeded in triplicate at 200,000 cells/well in a 6-well plate for quantitative real-time RT-PCR and alkaline phosphatase (ALP) assays or at 50,000 cells/well in a 12-well plate for the dual-luciferase reporter assay.
The C2C12 cells were plated at 200,000 cells/well in 6-well plates and grown overnight in DMEM containing 10% FBS. On day 2, the culture medium was replaced with DMEM containing 2% FBS and the cells were treated with various concentrations of the JAB1-interacting compound for 24 hours. On day 3, the medium was replaced with fresh DMEM containing 2% FBS and the cells were treated with 50 ng/ml of BMP-2 for 72 hours. The cells were washed with phosphate-buffered saline (PBS) and lysed by addition of lysis buffer (10 mM Tris-HCl pH 8.0, 1 mM MgCl2 and 0.5% Triton X-100). The cell lysates were centrifuged for 5 minutes at 13,000×g. The supernatant was removed and the aliquots were assayed for ALP activity and protein amount. The ALP activity was measured in triplicate using an ALP assay kit (Sigma-Aldrich, St. Louis, MO) in microtiter plates. The protein amount was determined with Bio-Rad protein assay reagent (Bio-Rad, Hercules, CA) using bovine serum albumin (BSA) as a standard. The ALP activity (nmoles of p-nitrophenol per ml) was normalized to the protein amount (nmoles of p-nitrophenol per μg).

Harlan athymic rats = experiment: Collagen disc implantation with Jab1-blockers and BMP-2 in rat ectopic model; format: in vivo; design: Average (Xray score): scale not given here; settings: 100 ul, chest implant, 4 weeks
From the text: Harlan athymic rats about 5-6 weeks of age were chest implanted with a collagen disc and doses of G8 and R13 in combination with BMP-2. After 4 weeks the rats were sacrificed and evaluated for bone growth.

[1] = compound dose 2 mM + BMP-2 1.5 ug
[2] = compound dose 4 mM + BMP-2 1.5 ug
[3] = compound dose 6 mM + BMP-2 1.5 ug
[4] = compound dose 8 mM + BMP-2 1.5 ug
[5] = compound dose 11 mM + BMP-2 1.5 ug
[6] = compound dose 15 mM + BMP-2 1.5 ug
[7] = compound dose 19 mM + BMP-2 1.5 ug

Row | Structure (SMILES) | ALP activity (Mouse C2C12 cells) | Average (Xray score) (Harlan athymic rats; [1]) | Results (bone made, n of 4) (Harlan athymic rats; [1]) | Average (Xray score) (Harlan athymic rats; [2]) | Results (bone made, n of 4) (Harlan athymic rats; [2]) | Average (Xray score) (Harlan athymic rats; [3]) | Results (bone made, n of 4) (Harlan athymic rats; [3]) | Average (Xray score) (Harlan athymic rats; [4]) | Results (bone made, n of 4) (Harlan athymic rats; [4]) | Average (Xray score) (Harlan athymic rats; [5]) | Results (bone made, n of 4) (Harlan athymic rats; [5]) | Average (Xray score) (Harlan athymic rats; [6]) | Results (bone made, n of 4) (Harlan athymic rats; [6]) | Average (Xray score) (Harlan athymic rats; [7]) | Results (bone made, n of 4) (Harlan athymic rats; [7])
1 | COc1cc2nccc(Oc3ccc(Br)c(C)c3)c2cc1OC [#SRJ-G8, 4-(4-bromo-3-methylphenoxy)-6,7-dimethoxyquinoline] | improving ALP activity | 3.5 | Bone made (4 of 4) | 3.75 | Bone made (4 of 4) | 3 | Bone made (3 of 4) | 4 | Bone made (4 of 4) | 1.25 | Bone made (1 of 4) | 1.75 | Bone made (2 of 4) | 0.75 | Bone made (1 of 4)
2 | COc1cc(OC)c(C=C2C(=O)Nc3cc(Cl)ccc32)c(OC)c1 [#SRJ-R13, 6-chloro-3-(2,4,6-trimethoxybenzylidene)indolin-2-one] | improving ALP activity | 1.75 | Bone made (3 of 4) | 2.25 | Bone made (4 of 4) |  | No bone (0 of 4) |  | No bone (0 of 4) |  | No bone (0 of 4) |  | No bone (0 of 4) |  | No bone (0 of 4)
3 | COc1cc(Nc2nccc(Nc3ccc(F)cc3)n2)cc(OC)c1 [P5, N^2-(3,5-dimethoxyphenyl)-N^4-(4-fluorophenyl)pyrimidine-2,4-diamine] | improving ALP activity |  |  |  |  |  |  |  |  |  |  |  |  |  | 
